According to US9149547B2, “Process for production of heterodimers of glutamic acid” (Molecular Insight Pharmaceuticals, Inc., priority 2009, dated 2015):

Experiments:
[1] = Stability profile of final formulation at room temperature (FIG. 4); format: physicochemical; settings: 6% sodium ascorbate/ascorbic acid with 2.3% sodium gentisate in sterile water for injection, compared to formulation of PBS (pH=9.0)
Protocol: In a 5 mL vial containing [^123I]NaI was added sterile water for injection (SWFI) (50 μL), 50% sulfuric acid in SWFI (50 μL), oxidant (100 μL) (which was prepared fresh via the incubation of acetic acid (0.2 mL) and 30% hydrogen peroxide (0.335 mL) followed by dilution to a final volume of 5 mL with SWFI), acetonitrile (0.5 mL), and the trimethylstannane precursor, Sn-MIP-1095 (compound 9) (100 μL of a 1 mg/mL solution in acetonitrile). The mixture was vortexed for 1 min and allowed to incubate at room temperature for an additional 10 minutes. The reaction was quenched with 200 μL of 0.1 M sodium thiosulfate. The product was then diluted in 18 mL of SWFI and loaded onto a C18 Sep Pak Plus column. The column was washed with 60 mL SWFI to remove unreacted radioiodine and inorganic and organic salts. The Sn-MIP-1095 precursor and ^123I-MIP-1095 ester are retained on the column. ^123I-MIP-1095 ester was eluted from the column using 4 mL of ethanol, while the Sn-MIP-1095 precursor was retained on the column. The resulting solution, containing the ^123I-MIP-1095 ester, was evaporated to dryness under a stream of nitrogen and the residue was dissolved in methylene chloride (0.5 mL) and TFA (2 mL) was added to remove the ester protecting groups. The deprotection solution was incubated at room temperature for 45 minutes. […]

[2] = Stability at room temperature, free I-123 content quantitated by HPLC; format: physicochemical
Protocol: Stability Results: Stability was evaluated for up to 2 days at room temperature by quantitation of free 1-123 content present by HPLC. The stability was determined at room temperature in an attempt to accelerate any product degradation to more rapidly assess the effectiveness of each radioprotectants in the formulation matrix.

SMILES	stability profile of final formulation [1]	stability of formulation ([2]; 6% ascorbate/3% gentisate formulation, 250 mCi scale-up runs)	increase in free iodine ([2]; stored at room temperature, evaluated for up to 2 days, free I-123 by HPLC)
O=C(O)CC[C@H](NC(=O)N[C@@H](CCCCNC(=O)Nc1ccc(I)cc1)C(=O)O)C(=O)O [^123I-MIP-1095, ^123I—(S)-2-(3-((S)-1-Carboxy-5-(3-(4-iodophenyl)ureido)pentyl)ureido)pentanedioic Acid]	stable profile		
O=C(O)CC[C@H](NC(=O)N[C@@H](CCCCNCc1ccc(I)cc1)C(=O)O)C(=O)O [^123I-MIP-1072, ^123I—(S)-2-(3-((S)-1-carboxy-5-(4-iodobenzylamino)pentyl)ureido)pentanedioic Acid]		good stability	3-5 % per day
